{
  "source": "patent EP0572365A2",
  "about": "“Heteroprostanoids, process for their production and therapeutical use thereof” (NUOVO CONSORZIO SANITARIO NAZIONALE del Dott. Paolo Malizia …, priority 1992, dated 1993)",
  "experiment": "Stability assay: storage of buffered water solutions, residual activity measured in the thrombocyte aggregation assay",
  "type": "physicochemical",
  "conditions": "room temperature, water solution buffered at pH 7",
  "excerpt": "The stability of some compounds according to the present invention has been compared with that of a natural prostaglandine through storage at room temperature of water solutions buffered at pH 7, by measuring the residual activity in the assay of thrombocyte aggregation at different times; the results, listed in Table III, show a much greater stability: […]",
  "data": [
    {"molecule": "CCCCCNC(=O)CN1CCC[C@H]1C(=O)OCCCCC(=O)O", "note": "[III (X₂=R₂=R₆=CH₂, R₄=CO, R=H, n=4, m=3), L-7-14-dioxo-12,15-diaza-6-oxa-prostanoic acid]", "values": [
      {"measurement": "residual activity in the assay of thrombocyte aggregation", "setting": "7 gg", "value": "7 gg: 4"},
      {"measurement": "residual activity in the assay of thrombocyte aggregation", "setting": "1h", "value": "1h: 98"},
      {"measurement": "residual activity in the assay of thrombocyte aggregation", "setting": "12h", "value": "12h: 78"},
      {"measurement": "residual activity in the assay of thrombocyte aggregation", "setting": "24h", "value": "24h: 62"}
    ]},
    {"molecule": "CCCCC(=O)NCC(=O)N1CCC[C@H]1C(=O)OCCCCC(=O)O", "note": "[III (X₂R₄=CH₂, R₂=R₆=CO, R=H, n=4, m=3), L-7,13,16-trioxo-12,15-diaza-6-oxa-prostanoic]", "values": [
      {"measurement": "residual activity in the assay of thrombocyte aggregation", "setting": "7 gg", "value": "7 gg: 15"},
      {"measurement": "residual activity in the assay of thrombocyte aggregation", "setting": "1h", "value": "1h: 100"},
      {"measurement": "residual activity in the assay of thrombocyte aggregation", "setting": "12h", "value": "12h: 92"},
      {"measurement": "residual activity in the assay of thrombocyte aggregation", "setting": "24h", "value": "24h: 80"}
    ]},
    {"molecule": "CCCCC[C@H](O)/C=C/[C@H]1[C@H](O)CC(=O)[C@@H]1CCCCCCC(=O)O", "note": "[PGE₁, Alprostadil, reference compound]", "values": [
      {"measurement": "residual activity in the assay of thrombocyte aggregation", "setting": "7 gg", "value": "7 gg: 0"},
      {"measurement": "residual activity in the assay of thrombocyte aggregation", "setting": "1h", "value": "1h: 30"},
      {"measurement": "residual activity in the assay of thrombocyte aggregation", "setting": "12h", "value": "12h: 2"},
      {"measurement": "residual activity in the assay of thrombocyte aggregation", "setting": "24h", "value": "24h: 0"}
    ]}
  ]
}
